Test results published in patent US12268683B2, “Compounds and methods for synergistic activation of M channels” (THE REGENTS OF THE UNIVERSITY OF CALIFORNIA, priority 2018, dated 2025).
Entries after “also recorded” stand apart in the source; their conditions may differ.

Columns and labels:
[1] = tested on: water-injected control oocytes; test: TEVC of water-injected control oocytes (endogenous current, EM); type: cell-based, Xenopus laevis
Procedure: TEVC recording was performed at room temperature with an OC-725C amplifier (Warner Instruments, Hamden, Conn.) and pClamp10.2 software (Molecular Devices, Sunnyvale, Calif.) 3-5 days after cRNA injection as described in the section above. Oocytes were placed in a small-volume oocyte bath (Warner) and viewed with a dissection microscope. Chemicals were sourced from Sigma. Bath solution was (in mM): 96 NaCl, 4 KCl, 1 MgCl2, 1 CaCl2. 10 HEPES (pH 7.6). […] MTX (DMSO), sorbic acid (ethanol), and glutaconic acid (molecular grade H2O) were stored at −20° C. as 1 M stocks. Oleamide was stored as a 1 mM stock in ethanol at 4° C. […] Currents were recorded in response to pulses between −80 and +40 mV at 20 mV intervals, or a single pulse to +40 mV, from a holding potential of −80 mV, to yield current-voltage relationships, current magnitude, and for quantifying activation rate. […]
TEVC recording was performed at room temperature using a OC-725C amplifier (Warner Instruments, Hamden, Conn.) and pClamp8 software (Molecular Devices, Sunnyvale, Calif.) 2-5 days after cRNA injection as described in the section above. […] Currents were recorded in response to pulses between −80 mV and +40 mV at 20 mV intervals, or a single pulse to +40 mV, from a holding potential of −80 mV, to yield current-voltage relationships, current magnitude, and for quantifying activation rate. […]

KCNQ2/KCNQ3-W265L = KCNQ2/KCNQ3-W265L (Homo sapiens, UniProt O43525+O43526, W265L); test: TEVC of KCNQ2/KCNQ3-W265L channels; type: cell-based
Excerpt: cRNA transcripts encoding human KCNQ2, KCNQ3, KCNQ4, KCNQ5 (Kv7.2-Kv7.5) were generated by in vitro transcription using the T7 polymerase mMessage mMachine kit (Thermo Fisher Scientific), after vector linearization, from cDNA sub-cloned into plasmids incorporating Xenopus laevis β-globin 5′ and 3′ UTRs flanking the coding region to enhance translation and cRNA stability. cRNA was quantified by spectrophotometry. Mutant KCNQ2 and KCNQ3 cDNAs were generated with site-directed mutagenesis using a QuikChange kit according to the manufacturer's protocol (Stratagene, San Diego, Calif.) and corresponding cRNAs prepared as above. Defolliculated stage V and VI Xenopus laevis oocytes (Ecocyte Bioscience, Austin, Tex.) were injected with KCNQ channel α subunit cRNAs (5-10 ng). The oocytes were incubated at 16° C. in Barth's saline solution (Ecocyte) containing penicillin and streptomycin, with daily washing, for 2-5 days prior to two-electrode voltage-clamp (TEVC) recording.
TEVC recording was performed at room temperature using a OC-725C amplifier (Warner Instruments, Hamden, Conn.) and pClamp8 software (Molecular Devices, Sunnyvale, Calif.) 2-5 days after cRNA injection as described in the section above. The oocytes were placed in a small-volume oocyte bath (Warner) and viewed with a dissection microscope. Unless otherwise stated, chemicals were sourced from Sigma. Bath solution was (in mM): 96 NaCl, 4 KCl, 1 MgCl2, 1 CaCl2, 10 HEPES (pH 7.6). […] The drugs were introduced into the recording bath by gravity perfusion at a constant flow of 1 ml per minute for 3 minutes prior to recording. Pipettes were of 1-2 MΩ resistance when filled with 3 M KCl. Currents were recorded in response to pulses between −80 mV and +40 mV at 20 mV intervals, or a single pulse to +40 mV, from a holding potential of −80 mV, to yield current-voltage relationships, current magnitude, and for quantifying activation rate. Deactivation was recorded at −80 mV after a single pulse to +40 mV, from a holding potential of −80 mV. Electrophysiology data analysis was performed with Clampfit (Molecular Devices) and Graphpad Prism software (GraphPad, San Diego, Calif., USA); values are stated as mean±SD. Raw or normalized tail currents were plotted versus prepulse voltage and fitted with a single Boltzmann function:
As previously described (12), we generated cRNA transcripts encoding human KCNA1, KCNE1, KCNE2, KCNE3, KCNQ1, KCNQ2, KCNQ3, KCNQ4 or KCNQ5 by in vitro transcription using the T7 polymerase mMessage mMachine kit (Thermo Fisher Scientific), after vector linearization, from cDNA sub-cloned into plasmids incorporating Xenopus laevis β-globin 5′ and 3′ UTRs flanking the coding region to enhance translation and cRNA stability. We quantified cRNA by spectrophotometry. […]

SMILES | effect on endogenous current or EM of water-injected control oocytes [1] | effect on KCNQ2/KCNQ3-W265L (in words) (KCNQ2/KCNQ3-W265L) | maximal shift in ΔV0.5activation (KCNQ2/KCNQ3-W265L; (E)-2-dodecenal) [mV] | EC50 (KCNQ2/KCNQ3-W265L; ΔV0.5activation, read-out: EC50 of (E)-2-dodecenal) [nM]
NCC1(CC(=O)O)CCCCC1 [gabapentin, reference compound] | no effect | insensitive |  | 
CCCCCCCCC/C=C/C=O [(E)-2-dodecenal] |  |  | −9 | 270 ± 20
CC(=O)c1c(O)c(C)c(O)c(Cc2c(O)c3c(c(C(=O)/C=C/c4ccccc4)c2O)OC(C)(C)C=C3)c1O [MTX, mallotoxin] | no effect |  |  | 
CS(=O)(=O)N(CC(=O)O)c1cccc(F)c1 [3FMSG] |  | dependent on KCNQ3-W265; also recorded: eliminated effects of 3FMSG |  | 
